Laboratory results published in paper PMC7089970, “Structural insights into catalytic mechanism and product delivery of cyanobacterial acyl-acyl carrier protein reductase” (Nature Communications, 2020).
Where two headings read alike, the source gives them in different places.

Legend:
[1] = tested on: AAR; conditions: cited from earlier work
[2] = tested on: AAR; conditions: ITC
From the text: To verify this assumption, we measured the binding affinity of K^+ ions with AAR, using ITC method.
AAR to perform all the experiments. The small organic molecule, such as stearoyl-CoA, can be used in high concentration, which is more favorable for either co-crystallization with AAR(-ADO) or soaking with the AAR(-ADO) crystals. In comparison, stearoyl-ACP is an 80-residue protein with a stearoyl chain linked to the 4’-phosphopanthetheine on a Ser residue, while the crystallization of protein-protein complexes (AAR-ACP) is much difficult than that of protein-ligand
(AAR-stearoyl-CoA) complexes.
ACP protein covalently linked with stearic chain (stearoyl-ACP), according to the […]
Considering the similar chemical structure of the acyl part of acyl-ACP and acyl-CoA, and the time-consuming experimental processes for obtaining the stearoyl-ACP protein and […]
In our originally submitted manuscript, we supposed that Mg2+ ion binds with AAR near its active site, but we […]
performed ITC experiment to confirm whether Mg2+ ions bind with AAR.
4. The authors assumed that Mg2+ and K+ ions bind to AAR in the crystals. However,
Therefore, it is required to confirm that Mg2+ and/or K+ really bind to AAR using […]
We have now performed the ITC

[3] = biological target: T1, AAR-wt (Synechococcus elongatus, UniProt Q54765); test: Isothermal titration calorimetry, stearoyl-CoA (650 uM) titrated into 30 uM AAR in 25 mM Tris-HCl pH 7.6, 1 mM TCEP, without KCl.; assay type: binding; conditions: read-out: KD value (µM), AAR (−K+)
T1 construct: gene Synpcc7942_1594; full length (341 residues), C-terminal His-tag removed by TEV protease; expressed in E. coli BL21(DE3) with chaperone plasmid pG-KJE8
Experimental: The binding affinity of AAR with ADO or stearoyl-CoA was measured by isotheral titration calorimetry (ITC) using a MicroCal Auto-ITC200 microcalorimeter (GE Healthcare Bio-sciences, Pittsburgh, PA). […] Wild type or mutants of ADO (or AAR) were placed into the sample cell (200 µL working volume) at a final concentration of 30 µM (60 µM for AAR) and was titrated with successive 2-µL injections of AAR protein with concentration of 500 µM (or ADO protein with concentration of 1 mM). Titrating AAR (500 µM) or ADO (1 mM) into the same buffer was performed as a control to determine the background correction. […] Injection of stearyol-CoA into the reaction buffer was performed as control to determine background correction.

[4] = biological target: T2, acyl-ACP reductase from Synechococcus elongatus PCC 7942, C294S mutant (Synechococcus elongatus PCC 7942, UniProt Q54765 1-341, C294S); test: crystal structure; AAR incubated with stearoyl-CoA (1:3), then with ADO (1:1), gel filtration; crystals in 0.1 M HEPES pH 7.5, 20% PEG8000; NADPH form by soaking; conditions: both partners purified
T2 construct: acyl-ACP reductase (AAR), Synechococcus elongatus PCC 7942, gene Synpcc7942_1594; complete protein of 341 residues; also called AAR C294S; AAR_(stearoyl-CoA); source: E. coli BL21(DE3), purified (same protocol as wild-type AAR); incubated with stearoyl-CoA before ADO was added; not shown: His6, C-terminal, cleaved
T2 sequence (looked up): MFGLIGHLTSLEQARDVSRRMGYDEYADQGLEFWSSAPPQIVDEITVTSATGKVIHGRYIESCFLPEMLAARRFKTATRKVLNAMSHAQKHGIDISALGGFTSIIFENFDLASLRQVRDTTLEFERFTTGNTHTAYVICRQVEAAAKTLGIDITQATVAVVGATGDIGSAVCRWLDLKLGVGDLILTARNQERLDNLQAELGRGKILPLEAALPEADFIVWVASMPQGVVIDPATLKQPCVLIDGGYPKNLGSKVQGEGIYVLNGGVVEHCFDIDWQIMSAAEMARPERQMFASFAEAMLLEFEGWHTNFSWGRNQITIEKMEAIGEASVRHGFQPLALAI

T1 sequence (Q54765 whole entry): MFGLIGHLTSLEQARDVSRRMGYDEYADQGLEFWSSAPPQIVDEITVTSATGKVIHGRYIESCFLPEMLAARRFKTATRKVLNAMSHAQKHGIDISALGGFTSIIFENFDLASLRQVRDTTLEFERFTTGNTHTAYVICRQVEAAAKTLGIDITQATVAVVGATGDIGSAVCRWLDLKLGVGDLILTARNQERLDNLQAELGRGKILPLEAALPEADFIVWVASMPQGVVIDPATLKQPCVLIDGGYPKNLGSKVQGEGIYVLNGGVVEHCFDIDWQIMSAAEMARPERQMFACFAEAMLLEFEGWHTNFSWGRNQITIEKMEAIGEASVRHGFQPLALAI

## [K+] [K^+]
[1]
  stimulation of AAR activity by monovalent metal ions: 10–20 fold
[2]
  binding of metal ion with AAR (in words): failed to detect signs of AAR binding K^+ ions
[2]; listed as K+
  binding of metal ion with AAR (in words): do not stably/directly bind AAR

## CCCCCCCCCCCCCCCCCC(=O)SCCNC(=O)CCNC(=O)[C@H](O)C(C)(C)COP(=O)(O)OP(=O)(O)OC[C@H]1O[C@@H](n2cnc3c(N)ncnc32)[C@H](O)[C@@H]1OP(=O)(O)O [stearoyl-CoA, stearoyl-coenzyme A]
[3]
  Kd: 2.3 ± 0.38 µM

B1: aldehyde-deformylating oxygenase from Synechococcus elongatus PCC 7942, wild type, His-tag removed (enzyme, UniProt Q54764 1-231, looked up)
chain: MPQLEASLELDFQSESYKDAYSRINAIVIEGEQEAFDNYNRLAEMLPDQRDELHKLAKMEQRHMKGFMACGKNLSVTPDMGFAQKFFERLHENFKAAAAEGKVVTCLLIQSLIIECFAIAAYNIYIPVADAFARKITEGVVRDEYLHRNFGEEWLKANFDASKAELEEANRQNLPLVWLMLNEVADDARELGMERESLVEDFMIAYGEALENIGFTTREIMRMSAYGLAAV
notes: aldehyde-deformylating oxygenase (ADO), Synechococcus elongatus PCC 7942, gene Synpcc7942_1593; Constructed and expressed 'similarly as' SeAAR in the modified pET24a (C-terminal TEV site and His6 peptide); ENLYFQ probably stays after cleavage (surmised); also called ADO; SeADO; not shown: His6, C-terminal, cleaved
[4]
  binding result: binds
